These results are taken from article PMC11940764 (2025).

One assay deals with poly(A) (RNA, polymer) A. Briefly: fluorescence titration, site-independent model. The note with it: TE buffer (Tris-HCl 10 mM, EDTA 1 mM) pH 8.0; dye 1 µM; unit not given.
Assay [1] deals with poly(A)·poly(U) (RNA, polymer) A/U. The assay is described as follows: fluorescence titration; CD (exciton-coupled ICD). The note with it: fluorescence: TE buffer pH 8.0, dye 1 µM; CD: phosphate buffer 10 mM pH 7.5; no Kb given.

The structures appear in SMILES notation.

`COc1cc2c(/C=C3/Sc4ccccc4N3C)cc[n+](C)c2cc1OC`: the Kb in the assay with poly(A) (RNA, polymer) A is on record as 9.5 × 10^6. Also, the binding result in assay [1] was “yes”.
